Experimental data taken from PMC3303619, “In Situ Absorption in Rat Intestinal Tract of Solid Dispersion of Annonaceous Acetogenins” (Gastroenterology Research and Practice, 2012).
Values after ≈ are worked out from the molar mass of the structure shown.

Experiments:
[1] = Stability of sample solution during storing and preparation (freeze-thaw, room temperature, stock solution); type: physicochemical; details: for Accuracy (mean ± SD)%, Freeze-thaw (three cycles): three freeze (−20°C) and thaw (room temperature) cycles, compared to nominal concentration
Protocol: The stability of sample solution was also tested at room temperature and 4°C, respectively, for 24 h. For freeze-thaw stability testing, the samples were determined after three freeze (−20°C) and thaw (room temperature) cycles, and the concentration was compared to their nominal concentration. For the short-term stability, the samples (three replicates at each QC concentration) were extracted and placed at room temperature for 24 h and then injected into the HPLC system for analysis.
Stock solutions of ACGs were stable for at least 30 days when stored at 4°C. No significant change was found after three freeze-thaw cycles and stored at room temperature for 24 h (Table 1).

[2] = Solubility studies in distilled water; type: physicochemical; details: 37 °C, thermodynamic from solid, component from ACGs solid dispersion (PEG 4000), 37 ± 0.5°C
Protocol: Solubility studies were conducted by placing an excess amount of ACGs (approximately 15 mg) and ACG-solid dispersion in 10 mL distilled water, and the mixture was heated at 37 ± 0.5°C in a water bath to facilitate the solubilization using a vortex mixer. Mixtures were equilibrated at 37 ± 0.5°C for 72 h in a water bath. The equilibrated samples were centrifuged at 3000 rpm for 15 min to remove the undissolved material. The supernatant was determined by HPLC.

[3] = Stability of ACGs in K-R buffer solution; type: physicochemical; details: ACGs-SD in K-R buffer, 37°C, n = 3
Protocol: Exact amount of ACGs-SD was dissolved in K-R buffer solution at 37°C in water bath. Chermolin-1, annonacin, squamocin, and annonin-VI were determined at 0, 30, 60, 90, and 120 min to analysis the stability of ACGs in K-R buffer solution.

intestinal loop in rats = test: Single-pass intestinal perfusion (SPIP) in rats at different perfusate concentrations; type: in vivo, Sprague-Dawley rats; details: values are P app × 10^3, mean ± SD, n = 6
Protocol: We used male Sprague-Dawley rats weighing 250 ± 20 g for all perfusion studies. The drug solution was prepared by dispersing the ACGs-SD in the K-R buffer solution and installed in the cylinder, which was incubated in at 37°C water bath to maintain temperature.
The in situ SPIP experiment was conducted according to the previously published reports. Firstly, six male Sprague-Dawley rats were placed in respective cages and fasted overnight before the experiment with free access to water. Rats were anesthetized with an intraperitoneal injection of pentobarbital sodium (40 mg/Kg body weight, i.p. injection), restrained in a supine position, and kept at a body temperature of 37°C using infrared lamps.
Bile duct was ligated and the intestinal content was immediately washed away with 37°C saline solution at a flow rate of 5 mL/min, by cannulating polyethylene tubings (3.2 mm diameter) using a peristaltic pump (BT00-100 M, Baoding Longer Precision Pump Co., Ltd., China). The isolated segment, duodenum, jejunum, ileum, and colon were rinsed with physiological saline to clean any residual debris until the out flowing became colorless. Then, the intestinal loop was made by ligating both ends of the intestinal loop from 4 cm below the bile duct opening to a segment above the ileocecum of small intestine of anesthetized rats. Care was taken to handle the small intestine gently in order to maintain an intact blood supply. The whole surgical area was covered with a piece of sterilized gauze wetted with physiological saline solution.
ACGs-SD was dissolved in K-R buffer solution (0.35 g KCl, 1.37 g NaHCO3, 7.8 g NaCl, 0.22 g NaH2PO4, 0.02 g MgCl2, and glucose in 1.48 g/1000 mL purified water, pH 6.5) at a concentration of 200 μg/mL, 300 μg/mL, 500 μg/mL of ACGs, and the solution was administered to the loop via the polyethylene tubing inserted into the loop. At the start of the study, the perfusion buffer containing sample solution was first perfused at a flow rate of 5 mL/min to ensure filling the segment rapidly, and the time was set to zero with the immediate start of the perfusion and the solution volume in circulation was recorded as the 0 min volume. After 10 min, when steady-state condition was achieved, the flow rate was adjusted to 0.2 mL/min, and the outlet perfused samples were collected at time intervals (5, 10, 15, 30, 60, 90, 120 min) for 2 h. During 2 h perfusion period, at each time period, assemble the outlet solution. At the end of the experiment, the length of perfused intestinal segment was measured without stretching.
(§1) The effective permeability (K a, P app) of the drug disappearing from the intestinal lumen during the intestinal perfusion was calculated by the steady-state equation: (1) Ka =(1−CoutQout/CinQin)Q/VPapp=[− Qin·ln (CoutQout/CinQin)]/2πrL where the radius of the gut lumen was represented by r, its length by L, and the perfusate flow rate by Q (mL/min). V presents the volume of the tested intestinal. The fraction C out/C in represents the concentration of the drμg leaving the perfused segment (C out) normalized to the concentration entering the segment (C in). The C out values were corrected for net water flux by the gravimetric method.
(§2) Once the intestinal segment reached steady state, subsequent values of C out/C in were used to calculate P app. P app represents the permeability of the compound (cm/s) as determined by the disappearance of the compound from the intestinal lumen. Steady state was assumed to be reached when C out/C in reached a constant value, as determined by direct observation of the data.

[4] = system: duodenum, jejunum, ileum, and colon segment; test: SPIP in different intestinal segments; type: in vivo, Sprague-Dawley rats; details: 300 μg/mL, values are P app × 10^3, mean ± SD, n = 6
Source text: The study followed the method described in Li et al. and Dahan and Amidon. Each 10 cm long intestinal segment was isolated as follows: duodenum segment beginning from 1 cm distal to pylorus, jejunum segment beginning from 15 cm away from pylorus, ileum segment beginning at the site 20 cm upwards caecum, while segment colon beginning at the site 2 cm distal to caecum. The above segments were carefully cannulated and ligated with both the ends. Then, each segment was perfused with solution containing different mass of ACGs.
as §1, §2

T24 bladder cancer cells = system: T24 bladder cancer cells; design: method as in PMID 16154156; details: cytotoxicity in a Bax- and caspase-3-related pathway; cited from earlier work
complex I = system: complex I; design: method as in PMID 8037664; details: mammalian mitochondria; steady-state and nonsteady-state conditions; cited from earlier work
K562 cells = system: K562 cells; design: method as in PMID 16310807; details: cited from earlier work
[5] = ACGs-SD perfusate concentration 200 μg · mL^−1
[6] = ACGs-SD perfusate concentration 300 μg · mL^−1
[7] = ACGs-SD perfusate concentration 500 μg · mL^−1

Compound | Accuracy (mean ± SD)%, Samples at room temperature for 24 h [1] | Accuracy (mean ± SD)%, Freeze-thaw (three cycles) [1] | solubility at 72 h [2] | Stability in K-R buffer solution, remaining ([3]; time 0 h) | Stability in K-R buffer solution, remaining ([3]; time 0.5 h) | Stability in K-R buffer solution, remaining ([3]; time 1 h) | Stability in K-R buffer solution, remaining ([3]; time 2 h) | P app × 10^3 (intestinal loop in rats; [5]) | P app × 10^3 (intestinal loop in rats; [6]) | P app × 10^3 (intestinal loop in rats; [7]) | P app × 10^3 ([4]; Duodenum) | P app × 10^3 ([4]; Ileum) | P app × 10^3 ([4]; Jejunum) | P app × 10^3 ([4]; colon) | Effect on cell cycle of T24 bladder cancer cells (T24 bladder cancer cells) | Effect on proton pumping function of complex I (complex I) | Effect on proliferation of K562 cells (K562 cells)
CCCCCCCCCCCC[C@@H](O)[C@H]1CC[C@H]([C@H](O)CCCC[C@H](O)CCCCC[C@@H](O)CC2=CC(C)OC2=O)O1 (some centres unmarked) [Annonacin, annonacin] | 96.3 ± 2.1% | 96.0 ± 1.0% | 213 µg/mL (≈ 357 µM) | 100% | 98.63% | 98.59% | 96.16% | 1.29 ± 0.12 cm · s^−1 | 0.92 ± 0.23 cm · s^−1 | 0.69 ± 0.31 cm · s^−1 | 1.36 ± 0.34 cm · s^−1 | 1.17 ± 0.49 cm · s^−1 | 1.38 ± 0.82 cm · s^−1 | 0.95 ± 0.45 cm · s^−1 | arrest T24 bladder cancer cells at the G1 phase |  | 
CCCCCCCCCC[C@H](O)[C@H]1CC[C@H]([C@H]2CC[C@H]([C@H](O)CCCCCCCCCC[C@@H](O)CC3=C[C@H](C)OC3=O)O2)O1 [Annonin-VI, annonin-VI] | 98.3 ± 2.1% | 99.3 ± 5.0% | 250 µg/mL (≈ 401 µM) | 100% | 95.64% | 99.59% |  | 0.75 ± 0.37 cm · s^−1 | 0.75 ± 0.21 cm · s^−1 | 0.79 ± 0.30 cm · s^−1 | 2.28 ± 0.29 cm · s^−1 | 1.26 ± 0.30 cm · s^−1 | 1.87 ± 0.29 cm · s^−1 | 1.10 ± 0.45 cm · s^−1 |  | inhibited the proton pumping function of complex I | 
CCCCCC[C@H](O)CCC[C@H](O)[C@H]1CC[C@H]([C@H]2CC[C@H]([C@H](O)CCCCCCCCCCCCC3=C[C@H](C)OC3=O)O2)O1 [Squamocin, squamocin] | 101.3 ± 6.2% | 101.6 ± 4.2% | 1080 µg/mL (≈ 1740 µM) | 100% | 100.51% | 99.86% | 98.58% | 0.96 ± 0.28 cm · s^−1 | 0.96 ± 0.27 cm · s^−1 | 0.93 ± 0.32 cm · s^−1 | 1.24 ± 0.27 cm · s^−1 | 1.14 ± 0.31 cm · s^−1 | 1.30 ± 0.27 cm · s^−1 | 1.03 ± 0.19 cm · s^−1 |  |  | inhibit the proliferation of K562 cells via G2/M arrest
